The test system of the data set is rodent lifetime carcinogenesis bioassay, tumor incidence TD50. Kind of data set: carcinogenic potency in animals, long-term in vivo studies, CPDB compilation (AID 1745844).

7 compounds from PubChem BioAssay AID1745844 (Carcinogenic Potency Database (CPDB), 2022) can be followed below.

Each structure is given as a SMILES string. Calls of active or inactive are those of the source. How the calls were made is not given here.

`CCCCN(CCCC)C(=S)[S-].CCCCN(CCCC)C(=S)[S-].[Zn+2]`: the TD50 (mouse, strain B6AKF1, females, oral dosing, site: any site (literature study), lesion: several types, types named in the paper, dosed 76 weeks, study length 76 weeks) was 2330 mg/kg/day (inactive); the TD50 (mouse, strain B6AKF1, females, oral dosing, site: lung, lesion: adenoma, dosed 76 weeks, study length 76 weeks) is 1090 mg/kg/day (inactive); the TD50 (mouse, strain B6C3F1, females, oral dosing, site: any site (literature study), lesion: several types, types named in the paper, dosed 76 weeks, study length 76 weeks) was 731 mg/kg/day (inactive); the TD50 (mouse, strain B6C3F1, females, oral dosing, site: lung, lesion: adenoma, dosed 76 weeks, study length 76 weeks) is 2330 mg/kg/day (inactive); the TD50 (mouse, strain B6C3F1, males, oral dosing, site: any site (literature study), lesion: several types, types named in the paper, dosed 76 weeks, study length 76 weeks) is 252 mg/kg/day (inactive); the TD50 (mouse, strain B6C3F1, males, oral dosing, site: liver, lesion: hepatoma, dosed 76 weeks, study length 76 weeks) is 680 mg/kg/day (inactive). Moreover, for the setting “mouse, strain B6C3F1, males, oral dosing, site: lung, lesion: adenoma, dosed 76 weeks, study length 76 weeks”, the TD50 is 1050 mg/kg/day (inactive). In addition, the carcinogen call runs as follows: (mouse, strain B6AKF1, females, oral dosing, site: liver, lesion: hepatoma, dosed 76 weeks, study length 76 weeks) “negative (inactive)”; (mouse, strain B6AKF1, males, oral dosing, site: any site (literature study), lesion: several types, types named in the paper, dosed 76 weeks, study length 76 weeks) “negative (inactive)”; (mouse, strain B6AKF1, males, oral dosing, site: liver, lesion: hepatoma, dosed 76 weeks, study length 76 weeks) “negative (inactive)”; (mouse, strain B6AKF1, males, oral dosing, site: lung, lesion: adenoma, dosed 76 weeks, study length 76 weeks) “negative (inactive)”; (mouse, strain B6C3F1, females, oral dosing, site: liver, lesion: hepatoma, dosed 76 weeks, study length 76 weeks) “negative (inactive)”.
As for `ClC1(Cl)C2(Cl)C3C4(Cl)C1(Cl)C1(Cl)C4(Cl)C(Cl)(Cl)C3(Cl)C21Cl` (configuration not stated), the TD50 is, setting by setting: (rat, strain Sprague-Dawley, males, in feed, site: liver, lesion: neoplastic nodule, dosed 91 weeks, study length 91 weeks) 6.68 mg/kg/day; (rat, strain Sprague-Dawley, males, in feed, site: thyroid gland, lesion: adenoma, dosed 91 weeks, study length 91 weeks) 1.46 mg/kg/day.
Consider `Brc1cc(Br)c(-c2cc(Br)c(Br)cc2Br)cc1Br`, for which the TD50 was 0.338 mg/kg/day (mouse, strain B6C3F1, females, by gavage, site: any site (literature study), lesion: several types, types named in the paper, dosed 26 weeks, study length 131 weeks); 0.402 mg/kg/day (mouse, strain B6C3F1, females, by gavage, site: liver, lesion: hepatocellular adenoma + hepatocellular carcinoma + neoplastic nodule, dosed 26 weeks, study length 131 weeks); 0.534 mg/kg/day (mouse, strain B6C3F1, females, by gavage, site: liver, lesion: hepatocellular carcinoma, dosed 26 weeks, study length 131 weeks); 0.915 mg/kg/day (mouse, strain B6C3F1, females, by gavage, site: lung, lesion: alveolar/bronchiolar adenoma + alveolar/bronchiolar carcinoma, dosed 26 weeks, study length 131 weeks); 0.362 mg/kg/day (mouse, strain B6C3F1, females, in feed, site: any site (literature study), lesion: several types, types named in the paper, dosed 105 weeks, study length 105 weeks); 0.307 mg/kg/day (mouse, strain B6C3F1, females, in feed, site: liver, lesion: hepatocellular adenoma + hepatoblastoma + hepatocellular carcinoma, dosed 105 weeks, study length 105 weeks). Besides, the TD50 is 0.307 mg/kg/day (mouse, strain B6C3F1, females, in feed, site: liver, lesion: hepatocellular adenoma + hepatocellular carcinoma, dosed 105 weeks, study length 105 weeks); 0.367 mg/kg/day (mouse, strain B6C3F1, females, in feed, site: liver, lesion: hepatocellular adenoma, dosed 105 weeks, study length 105 weeks); 0.588 mg/kg/day (mouse, strain B6C3F1, females, in feed, site: liver, lesion: hepatocellular carcinoma, dosed 105 weeks, study length 105 weeks); 19.1 mg/kg/day (mouse, strain B6C3F1, females, in feed, site: lung, lesion: alveolar/bronchiolar adenoma + alveolar/bronchiolar carcinoma, dosed 105 weeks, study length 105 weeks); 0.418 mg/kg/day (mouse, strain B6C3F1, males, by gavage, site: any site (literature study), lesion: several types, types named in the paper, dosed 26 weeks, study length 131 weeks); 0.285 mg/kg/day (mouse, strain B6C3F1, males, by gavage, site: liver, lesion: hepatocellular adenoma + hepatocellular carcinoma + neoplastic nodule, dosed 26 weeks, study length 131 weeks). The TD50 is 0.381 mg/kg/day (mouse, strain B6C3F1, males, by gavage, site: liver, lesion: hepatocellular carcinoma, dosed 26 weeks, study length 131 weeks); 0.349 mg/kg/day (mouse, strain B6C3F1, males, in feed, site: any site (literature study), lesion: several types, types named in the paper, dosed 105 weeks, study length 105 weeks); 0.262 mg/kg/day (mouse, strain B6C3F1, males, in feed, site: liver, lesion: hepatocellular adenoma + hepatoblastoma + hepatocellular carcinoma, dosed 105 weeks, study length 105 weeks); 0.262 mg/kg/day (mouse, strain B6C3F1, males, in feed, site: liver, lesion: hepatocellular adenoma + hepatocellular carcinoma, dosed 105 weeks, study length 105 weeks); 0.233 mg/kg/day (mouse, strain B6C3F1, males, in feed, site: liver, lesion: hepatocellular adenoma, dosed 105 weeks, study length 105 weeks); 0.54 mg/kg/day (mouse, strain B6C3F1, males, in feed, site: liver, lesion: hepatocellular carcinoma, dosed 105 weeks, study length 105 weeks). The TD50 (mouse, strain B6C3F1, males, in feed, site: lung, lesion: alveolar/bronchiolar adenoma + alveolar/bronchiolar carcinoma, dosed 105 weeks, study length 105 weeks) turned out to be 54.9 mg/kg/day; the TD50 (rat, strain Fischer 344, females, by gavage, site: any site (literature study), lesion: several types, types named in the paper, dosed 25 weeks, study length 124 weeks) is 0.365 mg/kg/day; the TD50 (rat, strain Fischer 344, females, by gavage, site: liver, lesion: cholangiocarcinoma + hepatocellular carcinoma + neoplastic nodule, dosed 25 weeks, study length 124 weeks) is 0.596 mg/kg/day; the TD50 (rat, strain Fischer 344, females, by gavage, site: liver, lesion: cholangiocarcinoma, dosed 25 weeks, study length 124 weeks) is 2.1 mg/kg/day; the TD50 (rat, strain Fischer 344, females, by gavage, site: liver, lesion: hepatocellular adenoma + hepatocellular carcinoma + neoplastic nodule, dosed 25 weeks, study length 124 weeks) turned out to be 0.645 mg/kg/day; the TD50 (rat, strain Fischer 344, females, by gavage, site: liver, lesion: hepatocellular carcinoma, dosed 25 weeks, study length 124 weeks) was 1.65 mg/kg/day. For the same compound, the TD50 is, setting by setting: (rat, strain Fischer 344, females, by gavage, site: liver, lesion: neoplastic nodule, dosed 25 weeks, study length 124 weeks) 1.1 mg/kg/day; (rat, strain Fischer 344, females, in feed, site: any site (literature study), lesion: several types, types named in the paper, dosed 104 weeks, study length 104 weeks) 2.38 mg/kg/day; (rat, strain Fischer 344, females, in feed, site: liver, lesion: hepatocellular adenoma + hepatoblastoma + hepatocellular carcinoma, dosed 104 weeks, study length 104 weeks) 0.656 mg/kg/day; (rat, strain Fischer 344, females, in feed, site: liver, lesion: hepatocellular adenoma + hepatocellular carcinoma, dosed 104 weeks, study length 104 weeks) 0.656 mg/kg/day; (rat, strain Fischer 344, females, in feed, site: liver, lesion: hepatocellular adenoma, dosed 104 weeks, study length 104 weeks) 0.7 mg/kg/day; (rat, strain Fischer 344, females, in feed, site: liver, lesion: hepatocellular carcinoma, dosed 104 weeks, study length 104 weeks) 8.22 mg/kg/day. Also, the TD50 reads like this: (rat, strain Fischer 344, females, in feed, site: mammary gland, lesion: fibroadenoma, dosed 104 weeks, study length 104 weeks) 1.59 mg/kg/day; (rat, strain Fischer 344, males, by gavage, site: any site (literature study), lesion: several types, types named in the paper, dosed 25 weeks, study length 118 weeks) 0.0645 mg/kg/day; (rat, strain Fischer 344, males, by gavage, site: liver, lesion: cholangiocarcinoma + hepatocellular carcinoma + neoplastic nodule, dosed 25 weeks, study length 118 weeks) 0.148 mg/kg/day; (rat, strain Fischer 344, males, by gavage, site: liver, lesion: cholangiocarcinoma, dosed 25 weeks, study length 118 weeks) 14.4 mg/kg/day; (rat, strain Fischer 344, males, by gavage, site: liver, lesion: hepatocellular adenoma + hepatocellular carcinoma + neoplastic nodule, dosed 25 weeks, study length 118 weeks) 0.151 mg/kg/day; (rat, strain Fischer 344, males, by gavage, site: liver, lesion: hepatocellular carcinoma, dosed 25 weeks, study length 118 weeks) 1.3 mg/kg/day. Besides, the TD50 was 0.168 mg/kg/day (rat, strain Fischer 344, males, by gavage, site: liver, lesion: neoplastic nodule, dosed 25 weeks, study length 118 weeks); 1.56 mg/kg/day (rat, strain Fischer 344, males, in feed, site: any site (literature study), lesion: several types, types named in the paper, dosed 104 weeks, study length 104 weeks); 0.408 mg/kg/day (rat, strain Fischer 344, males, in feed, site: liver, lesion: hepatocellular adenoma + hepatoblastoma + hepatocellular carcinoma, dosed 104 weeks, study length 104 weeks); 0.408 mg/kg/day (rat, strain Fischer 344, males, in feed, site: liver, lesion: hepatocellular adenoma + hepatocellular carcinoma, dosed 104 weeks, study length 104 weeks); 0.461 mg/kg/day (rat, strain Fischer 344, males, in feed, site: liver, lesion: hepatocellular adenoma, dosed 104 weeks, study length 104 weeks); 1.19 mg/kg/day (rat, strain Fischer 344, males, in feed, site: liver, lesion: hepatocellular carcinoma, dosed 104 weeks, study length 104 weeks).
In the case of `CC1CN1P(=O)(N1CC1C)N1CC1C` (configuration not stated), the TD50 (rat, strain Sherman, males, by gavage, site: all sites, lesion: lymphatic leukemia, dosed 60 weeks, study length 60 weeks) was 4.46 mg/kg/day.
On to `C=CCCl`, for which the TD50 by setting is: (mouse, strain B6C3F1, females, by gavage, site: any site (literature study), lesion: several types, types named in the paper, dosed 78 weeks, study length 91 weeks) 343 mg/kg/day; (mouse, strain B6C3F1, females, by gavage, site: liver, lesion: hepatocellular adenoma + hepatocellular carcinoma + neoplastic nodule, dosed 78 weeks, study length 91 weeks) 2180 mg/kg/day; (mouse, strain B6C3F1, females, by gavage, site: lung, lesion: alveolar/bronchiolar adenoma + alveolar/bronchiolar carcinoma, dosed 78 weeks, study length 91 weeks) 1250 mg/kg/day; (mouse, strain B6C3F1, females, by gavage, site: stomach, lesion: squamous-cell carcinoma + squamous-cell papilloma, dosed 78 weeks, study length 91 weeks) 706 mg/kg/day; (mouse, strain B6C3F1, males, by gavage, site: any site (literature study), lesion: several types, types named in the paper, dosed 67 weeks, study length 91 weeks) 184 mg/kg/day; (mouse, strain B6C3F1, males, by gavage, site: liver, lesion: hepatocellular adenoma + hepatocellular carcinoma + neoplastic nodule, dosed 67 weeks, study length 91 weeks) 457 mg/kg/day. Besides, the TD50 is 727 mg/kg/day (mouse, strain B6C3F1, males, by gavage, site: stomach, lesion: squamous-cell carcinoma + squamous-cell papilloma, dosed 67 weeks, study length 91 weeks); 35.2 mg/kg/day (rat, strain Osborne-Mendel, females, by gavage, site: any site (literature study), lesion: several types, types named in the paper, dosed 78 weeks, study length 110 weeks); 28.1 mg/kg/day (rat, strain Osborne-Mendel, males, by gavage, site: any site (literature study), lesion: several types, types named in the paper, dosed 78 weeks, study length 110 weeks).
On to `CCN(CC)CCOc1ccc(C(O)(Cc2ccc(OC)cc2)c2ccccc2)cc1` (configuration not stated), for which the carcinogen call (rat, strain Not specified, females, by gavage, site: mammary tissue, wider than the gland, lesion: one or several types, types not named, dosed 52 weeks, study length 52 weeks) was “negative (inactive)”.
For the compound `C=Cc1cccc[n+]1[O-]`, the TD50 (mouse, strain ICI, females, i.v., site: any site (literature study), lesion: benign tumor, dosed 75 weeks, study length 104 weeks) is 1690 mg/kg/day (inactive) and the TD50 (rat, strain Wistar, females, i.v., site: any site (literature study), lesion: malignant tumor, dosed 75 weeks, study length 104 weeks) is 175 mg/kg/day (inactive). Moreover, the carcinogen call (mouse, strain ICI, females, i.v., site: any site (literature study), lesion: malignant tumor, dosed 75 weeks, study length 104 weeks) was “negative (inactive)”; the carcinogen call (mouse, strain ICI, females, i.v., site: lung, lesion: adenoma, dosed 75 weeks, study length 104 weeks) was “negative (inactive)”; the carcinogen call (rat, strain Wistar, females, i.v., site: any site (literature study), lesion: benign tumor, dosed 75 weeks, study length 104 weeks) is “negative (inactive)”.

What is called TD50 is the dose at which the toxic effect under study appears in half of the subjects.
